Measured values: ChEMBL document CHEMBL1201862, “PubChem BioAssay data set” (2004)
Activity calls are given as the source filed them.

Key:
Leucine aminopeptidase = biological target: T1, Leucine aminopeptidase (Plasmodium falciparum 3D7, UniProt Q8IL11); assay: P. falciparum M17LAP inhibitors, primary screen, biochemical, fluorogenic H-Leu-NHMec substrate, 1536-well (AID 1619); type: functional
T1 sequence (Q8IL11 whole entry): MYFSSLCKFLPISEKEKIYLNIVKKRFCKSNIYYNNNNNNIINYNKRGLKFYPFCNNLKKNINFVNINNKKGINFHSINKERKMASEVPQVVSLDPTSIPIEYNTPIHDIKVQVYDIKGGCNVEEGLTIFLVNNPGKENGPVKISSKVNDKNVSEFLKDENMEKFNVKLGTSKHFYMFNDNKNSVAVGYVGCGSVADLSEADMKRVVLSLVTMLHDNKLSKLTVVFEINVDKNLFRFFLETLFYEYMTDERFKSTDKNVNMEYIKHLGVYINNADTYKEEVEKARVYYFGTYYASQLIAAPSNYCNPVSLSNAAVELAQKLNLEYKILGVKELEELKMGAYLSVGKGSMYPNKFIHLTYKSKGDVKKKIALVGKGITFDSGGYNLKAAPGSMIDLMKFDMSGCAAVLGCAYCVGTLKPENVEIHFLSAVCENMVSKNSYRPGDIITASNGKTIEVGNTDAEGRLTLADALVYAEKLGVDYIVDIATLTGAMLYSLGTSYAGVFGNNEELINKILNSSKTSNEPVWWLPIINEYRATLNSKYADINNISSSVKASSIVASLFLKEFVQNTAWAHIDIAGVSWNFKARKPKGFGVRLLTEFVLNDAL

Aspartyl aminopeptidase = Aspartyl aminopeptidase (Plasmodium falciparum 3D7, UniProt Q8I2J3); assay: Counterscreen for inhibitors of M1 and M17 aminopeptidases: QFRET-based biochemical high throughput dose response assay for inhibitors of the Plasmodium falciparum M18 Aspartyl Aminopeptidase (PFM18AAP). [Related PubChem assays: 1619 (Screening assay (M17LAP inhibitors).), 1445 (Screening assay (M1AAP inhibitors).)]
Aspartyl aminopeptidase, sequence (Q8I2J3 whole entry): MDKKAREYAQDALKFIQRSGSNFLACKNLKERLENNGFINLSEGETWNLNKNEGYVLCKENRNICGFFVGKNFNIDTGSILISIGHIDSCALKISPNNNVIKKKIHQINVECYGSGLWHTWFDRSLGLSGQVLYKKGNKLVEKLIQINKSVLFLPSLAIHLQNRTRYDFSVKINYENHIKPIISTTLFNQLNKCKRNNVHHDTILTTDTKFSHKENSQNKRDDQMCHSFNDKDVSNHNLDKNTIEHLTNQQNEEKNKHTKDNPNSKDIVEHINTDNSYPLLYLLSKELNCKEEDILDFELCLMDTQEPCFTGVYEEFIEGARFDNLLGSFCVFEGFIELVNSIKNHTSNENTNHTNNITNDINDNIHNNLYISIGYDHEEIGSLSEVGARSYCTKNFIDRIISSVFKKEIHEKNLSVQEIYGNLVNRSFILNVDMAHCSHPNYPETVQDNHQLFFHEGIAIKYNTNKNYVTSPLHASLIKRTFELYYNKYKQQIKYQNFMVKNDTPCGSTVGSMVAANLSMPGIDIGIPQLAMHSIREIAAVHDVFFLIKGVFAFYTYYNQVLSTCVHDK

Procathepsin L = Procathepsin L (Homo sapiens, UniProt P07711); assay: cathepsin L inhibitors, dose response, counter-screen for M1/M17 aminopeptidase inhibitor project, biochemical, QFRET, 1536-well (AID 2214)
Procathepsin L, sequence (P07711 whole entry): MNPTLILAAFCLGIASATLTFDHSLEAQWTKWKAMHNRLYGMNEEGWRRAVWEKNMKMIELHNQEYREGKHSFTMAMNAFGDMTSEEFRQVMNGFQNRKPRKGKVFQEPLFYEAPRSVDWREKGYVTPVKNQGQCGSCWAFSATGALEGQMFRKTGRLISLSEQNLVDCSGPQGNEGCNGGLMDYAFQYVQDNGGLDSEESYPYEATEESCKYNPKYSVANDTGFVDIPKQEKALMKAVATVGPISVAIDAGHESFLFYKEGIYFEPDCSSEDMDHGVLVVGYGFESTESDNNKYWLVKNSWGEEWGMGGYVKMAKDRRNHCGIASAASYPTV

[1] = biological target: T2, Replicative DNA helicase DnaB (Mycobacterium tuberculosis, UniProt P9WMR3); assay: DnaB intein splicing inhibitors, dose response, biochemical, cell-free fluorescence (AID 449749); type: functional
T2 sequence (P9WMR3 whole entry): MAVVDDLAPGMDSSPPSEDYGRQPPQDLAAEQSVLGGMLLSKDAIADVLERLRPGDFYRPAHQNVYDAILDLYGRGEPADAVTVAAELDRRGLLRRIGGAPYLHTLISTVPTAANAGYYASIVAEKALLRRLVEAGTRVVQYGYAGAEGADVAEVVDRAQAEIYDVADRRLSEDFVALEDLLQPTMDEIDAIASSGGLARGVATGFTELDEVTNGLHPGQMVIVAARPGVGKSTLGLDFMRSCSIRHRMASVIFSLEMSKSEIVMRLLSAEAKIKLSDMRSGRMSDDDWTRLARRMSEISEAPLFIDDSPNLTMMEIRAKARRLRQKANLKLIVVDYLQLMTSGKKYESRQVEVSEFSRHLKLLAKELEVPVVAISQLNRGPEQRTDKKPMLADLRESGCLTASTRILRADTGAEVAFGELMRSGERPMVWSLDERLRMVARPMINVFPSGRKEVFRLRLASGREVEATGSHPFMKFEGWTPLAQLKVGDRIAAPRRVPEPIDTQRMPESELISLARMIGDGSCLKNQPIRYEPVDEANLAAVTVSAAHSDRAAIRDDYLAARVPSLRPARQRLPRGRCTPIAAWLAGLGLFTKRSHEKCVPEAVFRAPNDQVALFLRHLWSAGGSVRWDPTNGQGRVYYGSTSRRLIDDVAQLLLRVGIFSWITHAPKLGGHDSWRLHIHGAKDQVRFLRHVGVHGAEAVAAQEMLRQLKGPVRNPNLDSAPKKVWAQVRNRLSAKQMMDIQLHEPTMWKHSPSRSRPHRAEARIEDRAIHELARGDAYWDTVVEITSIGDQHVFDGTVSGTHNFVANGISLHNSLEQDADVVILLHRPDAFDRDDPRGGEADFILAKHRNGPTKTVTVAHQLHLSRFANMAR

Protein RecA = biological target: T3, Protein RecA (Mycobacterium tuberculosis, UniProt P9WHJ3); assay: Fluorescence Cell-Free Homogeneous Dose Retest to Identify Inhibitors of RecA-Intein Splicing Activity. [Related pubchem assays (depositor defined):AID2097, AID2223, AID489010, AID492950]; type: functional
T3 sequence (P9WHJ3 whole entry): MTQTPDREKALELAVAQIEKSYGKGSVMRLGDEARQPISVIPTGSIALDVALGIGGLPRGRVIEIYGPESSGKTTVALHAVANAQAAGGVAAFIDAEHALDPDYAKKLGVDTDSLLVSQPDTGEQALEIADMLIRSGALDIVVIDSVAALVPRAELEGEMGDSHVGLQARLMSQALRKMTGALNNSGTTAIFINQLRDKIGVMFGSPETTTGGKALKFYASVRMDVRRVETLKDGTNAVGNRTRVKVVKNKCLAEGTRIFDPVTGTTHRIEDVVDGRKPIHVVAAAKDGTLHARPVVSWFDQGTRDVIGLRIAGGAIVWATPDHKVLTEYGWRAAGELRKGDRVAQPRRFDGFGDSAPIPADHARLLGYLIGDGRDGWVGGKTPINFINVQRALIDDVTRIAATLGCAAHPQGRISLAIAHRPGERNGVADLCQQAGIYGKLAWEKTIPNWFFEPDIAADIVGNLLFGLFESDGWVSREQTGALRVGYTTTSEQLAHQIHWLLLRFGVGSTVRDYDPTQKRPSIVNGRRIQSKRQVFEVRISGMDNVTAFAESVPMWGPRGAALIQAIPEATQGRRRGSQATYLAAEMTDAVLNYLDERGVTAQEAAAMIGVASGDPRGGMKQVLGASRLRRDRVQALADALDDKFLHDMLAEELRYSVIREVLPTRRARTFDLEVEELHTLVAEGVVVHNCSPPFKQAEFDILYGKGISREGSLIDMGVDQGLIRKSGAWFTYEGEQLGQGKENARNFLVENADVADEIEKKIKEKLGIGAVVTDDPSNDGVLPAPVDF

Estrogen receptor = biological target: T4, Estrogen receptor (Homo sapiens, UniProt P03372); assay: ERα–SRC-3 coactivator interaction inhibitors, confirmation, orthogonal assay, biochemical, ELISA, streptavidin-HRP readout (AID 1079)
T4 sequence (P03372 whole entry): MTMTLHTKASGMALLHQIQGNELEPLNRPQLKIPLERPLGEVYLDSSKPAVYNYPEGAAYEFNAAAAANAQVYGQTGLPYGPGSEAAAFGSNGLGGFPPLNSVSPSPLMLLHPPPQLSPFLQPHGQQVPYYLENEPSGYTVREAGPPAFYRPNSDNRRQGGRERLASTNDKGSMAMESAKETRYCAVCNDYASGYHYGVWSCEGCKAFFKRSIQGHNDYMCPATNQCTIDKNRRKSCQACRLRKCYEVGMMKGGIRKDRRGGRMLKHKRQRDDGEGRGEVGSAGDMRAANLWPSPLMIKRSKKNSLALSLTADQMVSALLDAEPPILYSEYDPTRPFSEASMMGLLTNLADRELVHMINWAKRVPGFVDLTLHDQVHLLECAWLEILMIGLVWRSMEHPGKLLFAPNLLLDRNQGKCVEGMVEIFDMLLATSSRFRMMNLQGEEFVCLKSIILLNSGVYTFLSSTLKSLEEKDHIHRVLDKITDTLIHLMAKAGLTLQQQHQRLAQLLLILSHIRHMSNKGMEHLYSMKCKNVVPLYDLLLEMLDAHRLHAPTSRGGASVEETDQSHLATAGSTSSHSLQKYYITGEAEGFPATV

[2] = biological target: Sphingosine 1-phosphate receptor 2 (Homo sapiens, UniProt O95136); assay: Dose Response Cell Based Assay for Antagonists of the S1P2 Receptor. [Related pubchem assays: 856, 736 ]; type: functional
Sphingosine 1-phosphate receptor 2, sequence (O95136 whole entry): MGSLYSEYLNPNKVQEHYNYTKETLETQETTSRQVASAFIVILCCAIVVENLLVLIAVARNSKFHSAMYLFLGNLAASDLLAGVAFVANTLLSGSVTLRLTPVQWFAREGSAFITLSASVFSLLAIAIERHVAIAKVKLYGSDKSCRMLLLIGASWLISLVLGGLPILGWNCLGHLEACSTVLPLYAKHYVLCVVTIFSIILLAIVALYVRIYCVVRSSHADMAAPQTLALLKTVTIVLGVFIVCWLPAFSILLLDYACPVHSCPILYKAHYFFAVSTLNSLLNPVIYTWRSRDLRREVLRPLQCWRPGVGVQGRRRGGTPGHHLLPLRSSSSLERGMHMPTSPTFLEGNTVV

[3] = test system: Streptococcus sp. 'group A'; assay: growth inhibition of control SK(-) GAS strain, dose response, counter-screen for streptokinase expression inhibitor project, luminescence, kanamycin, BacTiterGlo, confirmation (AID 1900); type: functional, organism-based
[4] = cytotoxicity in HPDE-C7 cells, cell-based, fluorescence, HTS (AID 430); type: functional; details: Homo sapiens
[5] = cytotoxicity in KRAS-transformed pancreatic duct cells, primary screen, cell-based, fluorescence, HTS (AID 431); type: functional; details: Homo sapiens;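 also: cell line used: HPDE-C7K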
[6] = biological target: Protein-tyrosine kinase 2-beta (Homo sapiens, UniProt Q14289);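 also: potency of inhibitors of PYK2 kinase phosphorylation of poly-GT substrate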
Protein-tyrosine kinase 2-beta, sequence (Q14289 whole entry): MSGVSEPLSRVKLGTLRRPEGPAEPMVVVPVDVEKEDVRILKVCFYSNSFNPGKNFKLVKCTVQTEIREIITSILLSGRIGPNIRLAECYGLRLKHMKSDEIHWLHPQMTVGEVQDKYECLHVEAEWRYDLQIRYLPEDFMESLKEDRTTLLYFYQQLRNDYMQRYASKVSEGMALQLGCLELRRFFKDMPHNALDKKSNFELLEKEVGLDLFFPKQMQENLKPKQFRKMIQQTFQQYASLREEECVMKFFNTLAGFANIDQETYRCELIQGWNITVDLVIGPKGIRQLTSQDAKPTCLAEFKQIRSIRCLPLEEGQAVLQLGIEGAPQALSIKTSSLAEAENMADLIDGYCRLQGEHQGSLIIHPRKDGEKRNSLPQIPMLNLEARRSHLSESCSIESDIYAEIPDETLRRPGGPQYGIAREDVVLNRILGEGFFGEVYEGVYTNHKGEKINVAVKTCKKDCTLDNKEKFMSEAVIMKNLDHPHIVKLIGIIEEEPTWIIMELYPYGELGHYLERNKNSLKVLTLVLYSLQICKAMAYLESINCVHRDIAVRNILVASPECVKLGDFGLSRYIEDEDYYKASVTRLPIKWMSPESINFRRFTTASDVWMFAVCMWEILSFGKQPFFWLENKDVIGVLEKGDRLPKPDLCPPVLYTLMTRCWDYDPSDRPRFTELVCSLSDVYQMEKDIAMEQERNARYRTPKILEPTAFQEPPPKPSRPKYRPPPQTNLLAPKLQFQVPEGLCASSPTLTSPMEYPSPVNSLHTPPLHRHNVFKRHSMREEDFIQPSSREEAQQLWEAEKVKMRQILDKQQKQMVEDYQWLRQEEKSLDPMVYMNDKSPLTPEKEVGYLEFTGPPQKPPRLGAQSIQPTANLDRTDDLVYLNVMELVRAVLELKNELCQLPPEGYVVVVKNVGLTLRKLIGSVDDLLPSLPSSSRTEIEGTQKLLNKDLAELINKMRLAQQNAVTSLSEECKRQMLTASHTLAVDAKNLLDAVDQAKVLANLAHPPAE

Streptococcus = assay: Group A Streptococcus viability loss, dose response, counter-screen for streptokinase expression inhibitor project, luminescence, BacTiterGlo (AID 1915); type: functional, organism-based;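 also: potency for reduction of bacterial viability or growth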
INS1 = assay: beta cell apoptosis inhibitors, cytokine rescue, dose response, luminescence, retest (AID 449756); type: functional, cell-based; details: Rattus norvegicus;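 also: cell death triggered by IL-1 beta plus TNF-alpha plus IFN-gamma mixture; protective hits raise ATP signal compared with cytokine alone wells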
[7] = Shn3 3'UTR reporter inhibitors, dose response, cell-based, Clone20 osteoblasts, firefly luciferase, cherry-picked (AID 624132); type: functional;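 also: firefly luciferase luminescence from reporter carrying the Shn3 3'UTR in osteoblasts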
[8] = control 3'UTR Renilla luciferase suppression, dose response, counter-screen for Shn3 inhibitor project, cell-based, Clone20-Shn3RL, cherry-picked (AID 624133); type: functional
[9] = Artemis endonuclease inhibitor potency, dose response, biochemical, fluorescence intensity (AID 720701); type: functional;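 also: Artemis endonuclease enzyme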
[10] = Luminescence Cell-Based Dose Confirmation HTS to Identify Inhibitors of Polyadenylation.; type: functional
[11] = M. tuberculosis H37Rv growth inhibitors, H37Rv strain (AID 1626); type: functional
cells = type: functional
[12] = biological target: T5, Neuropeptide Y receptor type 1 (Homo sapiens, UniProt P25929); type: functional;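 also: HEK293 cells with a CNG channel challenged with NPY then isoproterenol; potency as antagonist that reverses NPY suppression of cAMP signal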
T5 sequence (P25929 whole entry): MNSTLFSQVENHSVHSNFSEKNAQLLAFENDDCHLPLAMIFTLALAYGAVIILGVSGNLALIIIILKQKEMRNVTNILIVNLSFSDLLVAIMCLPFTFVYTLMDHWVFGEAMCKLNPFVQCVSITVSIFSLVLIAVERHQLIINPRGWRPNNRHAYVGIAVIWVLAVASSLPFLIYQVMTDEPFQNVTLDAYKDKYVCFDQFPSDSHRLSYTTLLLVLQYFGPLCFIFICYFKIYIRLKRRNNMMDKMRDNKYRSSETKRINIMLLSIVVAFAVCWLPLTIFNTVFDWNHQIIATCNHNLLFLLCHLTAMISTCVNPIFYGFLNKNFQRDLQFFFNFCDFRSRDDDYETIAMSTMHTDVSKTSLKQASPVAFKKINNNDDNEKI

[13] = biological target: T6, Neuropeptide Y receptor type 2 (Homo sapiens, UniProt P49146); type: functional, cell-based;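 also: HEK293 cells expressing the receptor and a CNG channel; stimulus was NPY near EC95 followed by isoproterenol to raise cAMP; antagonist potency measured as restoring cAMP signal that NPY suppresses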
T6 sequence (P49146 whole entry): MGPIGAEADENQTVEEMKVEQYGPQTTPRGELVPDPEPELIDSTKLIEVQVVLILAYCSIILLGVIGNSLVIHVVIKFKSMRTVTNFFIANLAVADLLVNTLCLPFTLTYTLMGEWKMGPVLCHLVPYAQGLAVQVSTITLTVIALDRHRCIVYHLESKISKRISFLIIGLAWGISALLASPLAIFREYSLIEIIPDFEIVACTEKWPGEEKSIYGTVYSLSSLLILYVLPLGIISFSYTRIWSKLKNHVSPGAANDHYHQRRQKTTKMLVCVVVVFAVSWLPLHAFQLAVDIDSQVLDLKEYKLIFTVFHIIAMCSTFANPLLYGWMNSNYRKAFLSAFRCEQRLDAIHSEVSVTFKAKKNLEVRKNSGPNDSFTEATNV

[14] = biological target: Ras and Rab interactor 1/Tyrosine-protein kinase ABL1 (Homo sapiens, UniProt P00519+Q13671); type: functional;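 also: biochemical TR-FRET dose-response test measuring inhibition of binding between Rin1 and Abl proteins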
Ras and Rab interactor 1/Tyrosine-protein kinase ABL1, sequence (P00519 whole entry): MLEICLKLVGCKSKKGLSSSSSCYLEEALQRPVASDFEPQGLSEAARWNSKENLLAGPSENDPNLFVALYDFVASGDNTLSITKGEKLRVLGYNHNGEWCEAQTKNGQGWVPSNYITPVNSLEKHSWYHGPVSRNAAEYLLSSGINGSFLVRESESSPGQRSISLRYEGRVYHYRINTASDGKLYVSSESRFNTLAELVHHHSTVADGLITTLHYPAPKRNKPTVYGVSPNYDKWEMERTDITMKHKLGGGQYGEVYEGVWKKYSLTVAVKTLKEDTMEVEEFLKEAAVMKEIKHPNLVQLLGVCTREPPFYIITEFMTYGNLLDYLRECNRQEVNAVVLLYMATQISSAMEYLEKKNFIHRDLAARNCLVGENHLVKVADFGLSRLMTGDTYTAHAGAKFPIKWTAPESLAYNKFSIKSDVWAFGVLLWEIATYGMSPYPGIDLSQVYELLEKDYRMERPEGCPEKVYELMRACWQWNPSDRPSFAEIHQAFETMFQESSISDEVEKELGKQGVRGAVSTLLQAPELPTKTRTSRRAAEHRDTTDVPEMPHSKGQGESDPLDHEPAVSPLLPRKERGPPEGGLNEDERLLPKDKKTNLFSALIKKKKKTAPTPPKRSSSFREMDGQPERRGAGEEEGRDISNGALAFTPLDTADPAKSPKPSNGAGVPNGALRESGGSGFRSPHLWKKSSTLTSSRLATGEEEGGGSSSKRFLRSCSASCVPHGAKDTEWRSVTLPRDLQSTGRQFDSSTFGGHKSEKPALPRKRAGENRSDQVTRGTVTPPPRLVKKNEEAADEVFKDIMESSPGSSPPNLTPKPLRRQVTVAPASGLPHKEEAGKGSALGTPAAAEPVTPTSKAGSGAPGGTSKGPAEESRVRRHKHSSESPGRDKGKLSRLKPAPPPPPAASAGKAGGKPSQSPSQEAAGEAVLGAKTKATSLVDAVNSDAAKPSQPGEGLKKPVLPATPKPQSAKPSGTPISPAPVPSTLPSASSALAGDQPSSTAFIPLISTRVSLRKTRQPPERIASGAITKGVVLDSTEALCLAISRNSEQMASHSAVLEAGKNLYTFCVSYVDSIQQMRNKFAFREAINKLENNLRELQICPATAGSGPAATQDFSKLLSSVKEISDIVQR
Ras and Rab interactor 1/Tyrosine-protein kinase ABL1, sequence (Q13671 whole entry): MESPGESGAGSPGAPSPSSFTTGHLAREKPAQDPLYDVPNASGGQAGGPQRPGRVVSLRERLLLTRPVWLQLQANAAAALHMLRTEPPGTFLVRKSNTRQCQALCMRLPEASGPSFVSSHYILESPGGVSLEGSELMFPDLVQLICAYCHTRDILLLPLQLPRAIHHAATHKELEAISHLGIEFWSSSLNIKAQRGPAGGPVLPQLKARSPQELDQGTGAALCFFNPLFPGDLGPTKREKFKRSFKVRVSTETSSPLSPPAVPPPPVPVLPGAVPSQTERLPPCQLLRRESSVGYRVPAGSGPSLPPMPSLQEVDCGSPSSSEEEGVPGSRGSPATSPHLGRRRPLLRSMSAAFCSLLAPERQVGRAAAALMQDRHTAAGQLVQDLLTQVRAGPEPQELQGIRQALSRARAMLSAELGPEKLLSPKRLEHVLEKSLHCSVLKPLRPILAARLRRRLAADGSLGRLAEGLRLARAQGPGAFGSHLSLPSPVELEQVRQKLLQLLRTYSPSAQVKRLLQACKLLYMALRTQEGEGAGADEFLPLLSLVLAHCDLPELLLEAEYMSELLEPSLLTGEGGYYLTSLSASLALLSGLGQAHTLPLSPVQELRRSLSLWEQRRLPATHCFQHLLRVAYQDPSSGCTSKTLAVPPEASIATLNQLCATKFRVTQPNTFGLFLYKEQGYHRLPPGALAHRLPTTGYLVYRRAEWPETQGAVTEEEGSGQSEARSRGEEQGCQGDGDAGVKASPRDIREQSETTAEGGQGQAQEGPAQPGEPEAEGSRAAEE

[15] = A High Throughput Confirmatory Assay used to Identify Novel Compounds that Inhibit Mycobacterium Tuberculosis in the absence of Glycerol.; type: functional
[16] = M. tuberculosis growth inhibition, HTS (AID 449762); type: functional
[17] = biological target: T7, Probable nicotinate-nucleotide adenylyltransferase (Staphylococcus aureus (strain N315), UniProt P65502); type: functional, Staphylococcus aureus subsp. aureus N315;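 as to IC50 Mean: confirmatory dose-response retesting of NadD inhibitor hits first found in an ultra-high-throughput screen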
T7 sequence (P65502 whole entry): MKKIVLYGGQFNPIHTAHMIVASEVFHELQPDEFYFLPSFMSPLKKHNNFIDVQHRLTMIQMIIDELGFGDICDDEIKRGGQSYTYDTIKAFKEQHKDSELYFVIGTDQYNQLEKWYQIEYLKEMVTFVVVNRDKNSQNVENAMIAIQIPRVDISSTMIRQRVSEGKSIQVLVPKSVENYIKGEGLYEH

[18] = biological target: T7, Probable nicotinate-nucleotide adenylyltransferase; type: functional, Staphylococcus aureus subsp. aureus N315; details: read-out: IC50_Mean

Cc1ccc(-c2cc(O)[nH]n2)c(C)c1
IC50 (Leucine aminopeptidase): < 1 µM (active)
IC50 (Aspartyl aminopeptidase): > 73.5 µM (not active)
IC50 (Procathepsin L): > 59.6 µM (not active)
AC50 [1]: 2.53 µM (active)
EC50 (Protein RecA): 0.502 µM (active)

O=C(CCCCCn1c(=S)[nH]c2ccccc2c1=O)N1CCN(c2cccc([N+](=O)[O-])c2)CC1
IC50 (Estrogen receptor): 0.84 µM (not active)

CCn1c(=O)c(C(=O)Nc2nc3ccccc3[nH]2)c(O)c2ccccc21
IC50 [2]: > 50 µM (not active)
EC50 [3]: 0.992 µM (active)
EC50 [4]: 4.14 µM (active)
EC50 [5]: 5.58 µM (active)
IC50 [6]: > 69.5 µM (not active)
EC50 (Streptococcus): 2.99 µM (active)
AC50 (INS1): 3.83 µM (active)
AC50 [7]: 6.01 µM (active)
AC50 [8]: 4.17 µM (active)
IC50 [9]: 3.81 µM (active)

CCCOP(=O)(c1ccc(N(C)C)cc1)C(Nc1ccccc1)c1ccc(C)cc1 (stereo unspecified)
EC50 [10]: > 120 µM (not active)

N=C1/C(=C/c2ccc(OC(=O)c3ccco3)cc2)C(=O)N=C2SC=CN12
IC50 [11]: > 100 µM (active)
IC50 (cells): 10.9 µM (active)

CCOC(=O)CCCCC(=O)c1[nH]c(O)nc1CSc1nnc2c3ccccc3n(C(C)C)c2n1
IC50 [12]: 7.63 µM (active)
IC50 [13]: 2.95 µM (active)
IC50 [14]: 3.46 µM (active)

CC(=O)c1cccc(NC(=O)C2C3C=CC(C3=C(c3ccccc3)c3ccccc3)C2C(=O)O)c1 (stereo unspecified)
IC50 [15]: > 50 µM (active)
IC50 [16]: > 100 µM (active)
IC50 [17]: 8.12 µM (active)
IC50 [18]: 44.5 µM (active)
